Laboratory results: US8049006B2, “7-membered ring compound and method of production and pharmaceutical application thereof” (Daiichi Sankyo Company, Limited, priority 2006, dated 2011)

Experiments:
C3H/HeN mice = details: 10 mg/kg orally once a day; 24 hours after DNFB application at fifth week; female C3H/HeN mice

Q: With `COc1ccc(F)cc1/C=C1\CNC(=O)CN(S(=O)(=O)c2ccc(Cl)s2)C1=O` as the compound, how does the melting point read?
A: 150 to 153 °C

Q: With `CC[C@@H](NC(=O)N1CC(=O)NC[C@@H](Cc2cc(Cl)ccc2OC)C1=O)c1cccc(C(=O)[O-])c1.[Na+]` as the compound, how does the melting point read?
A: 161 to 163 °C

Q: Which melting point does the source give for `COC(=O)C[C@@H]1C(=O)NC[C@H](Cc2cc(F)ccc2OC)C(=O)N1S(=O)(=O)c1ccc(Cl)cc1` here?
A: 73 to 76 °C

Q: Which melting point does the source give for `CC[C@@H](NC(=O)N1CC(=O)NCC(Cc2cc(Cl)ccc2OC)C1=O)C(=O)Nc1nnn[nH]1` (stereo partly drawn) here?
A: 141 to 142 °C

Q: Which melting point does the source give for `CC[C@@H](NC(=O)N1CC(=O)NCC(Cc2cc(Cl)ccc2OC)C1=O)C(=O)Nc1ccc(C)c(C(=O)O)c1` (stereo partly drawn) here?
A: 132 to 134 °C

Q: Which melting point does the source give for `COC(=O)COc1ccc(Cl)cc1CC1CNC(=O)CN(S(=O)(=O)c2ccc(Cl)cc2)C1=O` (stereo not drawn) here?
A: 138 to 140 °C

Q: With `O=C(CN1CC(Cc2ccccc2)C(=O)N(S(=O)(=O)c2ccc(Cl)cc2)CC1=O)NCc1ccccc1` (stereo not drawn) as the compound, how does the melting point read?
A: 187 to 190 °C

Q: Which melting point does the source give for `COc1ccc(Cl)cc1CC1CNC(=O)CN(C(=O)Nc2cccc(NC(C)=O)c2)C1=O` (stereo not drawn) here?
A: 130 to 131 °C

Q: For `Cc1cccc(CC2CNC(=O)CN(S(=O)(=O)c3ccc(Cl)cc3)C2=O)c1` (stereo not drawn), which melting point is on record?
A: 64 to 66 °C

Q: Which melting point does the source give for `N#Cc1ccc(S(=O)(=O)N2CC(=O)NC/C(=C\c3ccccc3)C2=O)cc1` here?
A: 239 °C (dec.)

Q: For `COc1ccc(Cl)cc1CC1CNC(=O)CN(S(=O)(=O)c2ccc(Cl)cc2)C1=O` (stereo not drawn) [Compound 29, 6-(5-chloro-2-methoxybenzyl)-4-[(4-chlorophenyl)sulfonyl]-1,4-diazepan-2,5-dione], which melting point is on record?
A: 110 to 112 °C

Q: And the “inhibition rate of the skin reaction” value (C3H/HeN mice)?
A: 25.1%

Q: For `COc1ccc(Cl)cc1CC1CNC(=O)CN(S(=O)(=O)c2ccc(Cl)c(N)c2)C1=O.Cl` (stereo not drawn) [Compound 90, 4-[(3-amino-4-chlorophenyl)sulfonyl]-6-(5-chloro-2-methoxybenzyl)-1,4-diazepan-2,5-dione Hydrochloride], which “inhibition rate of the skin reaction” value (C3H/HeN mice) is on record?
A: 31.0%

Q: Which results are given for `CC[C@@H](NC(=O)N1CC(=O)NC[C@@H](Cc2cc(Cl)ccc2OC)C1=O)c1cccc(C(=O)O)c1` [Compound 91, 3-[(1R)-1-({[(6R)-6-(5-chloro-2-methoxybenzyl)-3,7-dioxo-1,4-diazepan-1-yl]carbonyl}amino)propyl]benzoic Acid]?
A: melting point: 121 to 123 °C; inhibition rate of the skin reaction (C3H/HeN mice): 26.1%
